This is an account of results in patent US20110105599A1, “THERAPEUTIC OR PREVENTIVE AGENTS FOR ISCHEMIC NEUROPATHY” (Dainippon Sumitomo Pharma Co., Ltd., priority 2003, published 2011).

Entries after “also recorded” stand apart in the source; their conditions may differ.

Data set [1] concerns increased intra ocular pressure model (retina of SD rats). Put plainly: Pharmacological effect on an increased intra ocular pressure model (retinal layer thickness). Format: in vivo, rat. The following applies: for thickness of outer nuclear layer (ONL), Average / thickness of inner nuclear layer (INL), Average / thickness of inner plexus layer (IPL), Average: 5 μl of 0.1 mg/ml to the vitreous body; for cell death of inner granular cells due to increased intra ocular pressure (in words): overall conclusion of the example; for decrease of the thickness of the inner granular cell layer (INL) due to increased intra ocular pressure (in words) / decrease of the thickness of the inner plexus layer (IPL) due to increased intra ocular pressure (in words): compared to IOP increase load + PBS group, Student's t-test; for influence of administration on the outer nuclear layer (in words): rats with IOP increase load, pre- or post-administration to the vitreous body. From the text: The retinal nerve consists of the extraretinal granular layer, granule cells in the retina and the gangliocyte layer, and granule cells in the retina and the gangliocyte layer receive blood supply from the central retinal artery. When pressure is imposed on the anterior chamber, a load is imposed on the cribrosa lamina which is not covered with the sclera and the central retinal artery which extends through this area is occluded, and as a result, granule cells in the retina and the gangliocyte layer becomes ischemic, and cell death occurs.
The damage of granule cells in the retina can be readily evaluated as “the thickness of the inner nuclear layer (INL)” representing the change in number of the cells. Since the inner plexus layer, synapses between each neurons, is also damaged by the increase in the intra ocular pressure and made thinner, the thickness of the inner plexus layer (IPL) becomes an indicator to show the degree of damage. Therapeutic or preventive agents for retinal neuropathy having a suppressive effect have been explored using these two parameters as indices.
20 SD rats (6-week old) were used and divided into the following groups. • Sham operation (sometimes abbreviated as Sham ope hereinbelow): Five rats (Of these, 4 rats were used for analysis) • IOP (Intra Ocular pressure) treatment+PBS (5 μl was administered to the vitreous body): Five rats (Of these, 4 rats were used for analysis) • IOP (Intra Ocular pressure) treatment+test compound (5 μl was pre-administered to the vitreous body): Five rats (Of these, 4 rats were used for analysis) • IOP (Intra Ocular pressure) treatment+test compound (5 μl was post-administered to the vitreous body): Five rats (Of these, 4 rats were used for analysis) • (2) Increase in Intra Ocular Pressure
By the following steps, increased intra ocular pressure model animals were prepared and a drug (test compound) was administered thereto.
(i) A rat was set to a brain stereotaxic apparatus under anesthesia with […].
(ii) The head of the rat was fixed and an eyeball was pricked with a 26-G needle attached to the tip of a tube, which was connected to a sphygmomanometry device, into the rat anterior chamber and a load was imposed so that the inner pressure of the anterior chamber was 140 to 160 mmHg.
(iii) As for the timing of the administration of a drug into the vitreous body, the drug was administered 15 minutes before the intra ocular pressure increasing load for pre-administration, while the drug was administered 15 minutes after the intra ocular pressure increasing load for post-administration.
(iv) Increase in intra ocular pressure was maintained for one hour, and the rat was relieved from the brain anchor after the intra ocular pressure loading and ordinarily bred for one week.
(v) After sacrificed by suffocation with carbon dioxide, eyeballs were removed.
(vi) A paraffin section of the retina was prepared and dyed with 0.5% cresyl violet.
(vii) A histological image at a position 880 μm from the optic papilla (upper part of the retina) was photographed and the thicknesses of the outer nuclear layer (ONL), inner nuclear layer (INL) and inner plexus layer (IPL) were measured. • (3) Preparation of a Drug and Administration Method
SPF-3059-1 as a test substance was dissolved in PBS to a concentration of 1 mg/ml and further diluted with PBS to 0.1 mg/ml immediately before use. 5 μl of the diluted solution was administered to the vitreous body of the left eye of a rat with a 30G double needle. • (4) Significance Test
Intra ocular pressure was increased by the method of above (2) and significance tests were conducted by Student's t-test and Welch & F-test on the retinal protection effect of SPF-3059-1 administration in rats to which PBS was administered to the vitreous body.
Each of the thickness of outer nuclear layer, inner nuclear layer and inner plexus layer was measured using the retina of the rats in each treatment group, and a cytoprotective effect was evaluated. […]

Data set [2] shares this test system. Described as above. Conditions: Example 2, 7-week old SD rats, 5 μl of 0.1 mg/ml to the vitreous body. Format: in vivo, rat.
The nature of data set [3]: Solubility (physico-chemical properties of the prepared compound). It counts as physicochemical. From the text:
Each compound of the present invention is a known compound and is disclosed by WO02/09756 or WO03/062243 and can be produced from SPF-3059 strain which is a fungus belonging to the genus Penicillium. Production process and physico-chemical properties are described in the above international publication pamphlets. Specifically, the following compounds were respectively prepared. • (Compound SPF-3059-1) • Appearance: Yellow powder • High resolution fast atom bombardment mass spectrum • (HRFAB-MS) m/z (M+H)^+: • Observed value: 579.0772 • Calculated value: 579.0776 • Molecular formula: C28H18O14 • Ultraviolet visible absorption spectrum λ max (in methanol) nm(ε): […]

Another data set relates to cultured nerve cells. The following applies: in a short period of time; as low as; cited from earlier work.
The mark [4] stands for this setting: Example 1, 6-week old SD rats, IOP increase load + test substance post-administration, one week after load.
The mark [5] stands for this setting: Example 1, 6-week old SD rats, IOP increase load + test substance pre-administration, one week after load.
The mark [6] stands for this setting: Example 2, 7-week old SD rats, IOP increase load + test substance post-administration.
[7] abbreviates: IOP increase load + test substance pre-administration.

Regarding `CC(=O)c1c(C)c(C(=O)C2COc3cc(O)c(O)c(C(=O)O)c3C2=O)cc2c(=O)c3c(C(=O)O)c(O)c(O)cc3oc12` (centres unmarked) [SPF-3059-1], the “thickness of outer nuclear layer (ONL), Average” value (shortened to “thickness of outer nuclear layer”) in data set [1] (Example 1, 6-week old SD rats, IOP increase load + test substance post-administration (15 minutes after load), one week after load) came to 45.56 μm; in data set [1] (Example 1, 6-week old SD rats, IOP increase load + test substance pre-administration (15 minutes before load), one week after load), 45.79 μm. Further, the “thickness of inner nuclear layer (INL), Average” value (“thickness of inner nuclear layer” below) came to 27.89 μm in data set [1] (setting [4]) and 29.56 μm in data set [1] (setting [5]). The “thickness of inner plexus layer (IPL), Average” value (from here on “thickness of inner plexus layer”) in data set [1] (setting [4]) is listed as 40.45 μm; in data set [1] (setting [5]), 46.89 μm. Moreover, the “cell death of inner granular cells due to increased intra ocular pressure (in words)” value in data set [1] is on record as “suppressed”. The “decrease of the thickness of the inner granular cell layer (INL) due to increased intra ocular pressure (in words)” value in data set [1] (post-administration) was “tends to be suppressed; also recorded: suppressing tendency”; in data set [1] (pre-administration), “suppressed significantly; also recorded: suppressing effect”. Besides, the results for the “decrease of the thickness of the inner plexus layer (IPL) due to increased intra ocular pressure (in words)” value in data set [1] (post-administration) and in data set [1] (pre-administration) were “tends to be suppressed; also recorded: suppressing tendency” and “suppressed significantly; also recorded: suppressing effect”, respectively. Besides, in data set [1], the “influence of administration on the outer nuclear layer (in words)” value is “does not have an influence”.

Take `CC(=O)c1cc2c(=O)c3c(C(=O)O)c(O)c(O)cc3oc2c(C(C)=O)c1-c1coc2cc(O)c(O)c(C(=O)O)c2c1=O` [SPF-3059-5]: in data set [1] (setting [6]), the “thickness of inner nuclear layer” value came to 36.76 μm and the “thickness of inner plexus layer” value amounted to 55.15 μm. For the same molecule, in data set [1], the “cell death of inner granular cells due to increased intra ocular pressure (in words)” value is “suppressed” and the “influence of administration on the outer nuclear layer (in words)” value is “does not have an influence”. In addition, in data set [1] (post-administration), the “decrease of the thickness of the inner granular cell layer (INL) due to increased intra ocular pressure (in words)” value is reported as “shown statistically significantly” and the “decrease of the thickness of the inner plexus layer (IPL) due to increased intra ocular pressure (in words)” value is given as “suppressed significantly”. Moreover, in data set [1] (pre-administration), the “decrease of the thickness of the inner granular cell layer (INL) due to increased intra ocular pressure (in words)” value is recorded as “tends to be suppressed; also recorded: suppressing tendency” and the “decrease of the thickness of the inner plexus layer (IPL) due to increased intra ocular pressure (in words)” value is reported as “suppressed significantly; also recorded: suppressing effect”. Besides, in data set [2] (IOP increase load + test substance post-administration), the “thickness of outer nuclear layer” value was found to be 61.76 μm. Further, in data set [2] (setting [7]), the “thickness of inner nuclear layer” value amounted to 33.09 μm; the “thickness of inner plexus layer” value stood at 55.88 μm; the “thickness of outer nuclear layer” value is 60.29 μm.

As for `CC(=O)c1cc2c(=O)c3c(C(=O)O)c(O)c(O)cc3oc2c(C(C)=O)c1-c1coc2cc(O)c(O)cc2c1=O` [SPF-3059-24], the Solubility result is “soluble” in data set [3] (in DMSO), “Insoluble” in data set [3] (in hexane), “soluble” in data set [3] (in methanol) and “Insoluble” in data set [3] (in water).

B1: semaphorin 3A: endogenous protein which collapses the nerve growth cone and suppresses axon elongation (protein, UniProt Q14563 21-771, looked up)
Semaphorin-3A: NYQNGKNNVPRLKLSYKEMLESNNVITFNGLANSSSYHTFLLDEERSRLYVGAKDHIFSFDLVNIKDFQKIVWPVSYTRRDECKWAGKDILKECANFIKVLKAYNQTHLYACGTGAFHPICTYIEIGHHPEDNIFKLENSHFENGRGKSPYDPKLLTASLLIDGELYSGTAADFMGRDFAIFRTLGHHHPIRTEQHDSRWLNDPKFISAHLISESDNPEDDKVYFFFRENAIDGEHSGKATHARIGQICKNDFGGHRSLVNKWTTFLKARLICSVPGPNGIDTHFDELQDVFLMNFKDPKNPVVYGVFTTSSNIFKGSAVCMYSMSDVRRVFLGPYAHRDGPNYQWVPYQGRVPYPRPGTCPSKTFGGFDSTKDLPDDVITFARSHPAMYNPVFPMNNRPIVIKTDVNYQFTQIVVDRVDAEDGQYDVMFIGTDVGTVLKVVSIPKETWYDLEEVLLEEMTVFREPTAISAMELSTKQQQLYIGSTAGVAQLPLHRCDIYGKACAECCLARDPYCAWDGSACSRYFPTAKRRTRRQDIRNGDPLTHCSDLHHDNHHGHSPEERIIYGVENSSTFLECSPKSQRALVYWQFQRRNEERKEEIRVDDHIIRTDQGLLLRSLQQKDSGNYLCHAVEHGFIQTLLKVTLEVIDTEHLEELLHKDDDGDGSKTKEMSNSMTPSQKVWYRDFMQLINHPNLNTMDEFCEQVWKRDRKQRRQRPGHTPGNSNKWKHLQENKKGRNRRTHEFERAPRSV
On to B1, for which, in the data set with cultured nerve cells, the “concentration inducing growth cone collapse of the cultured nerve cells” value was 10 pM.
